Article PMC6957264 (Bioconjugate chemistry, 2017)

Legend:
[1] = test system: C1a and C1b domains of PKCε; details: C1a vs C1b; cited from earlier work
[2] = test system: EGFP-tagged PKCε in LNCaP cells; test: Translocation of GFP-tagged PKCε in LNCaP cells, confocal microscopy; assay type: cell-based, human; details: 1 μM, single experiment
[3] = test system: isolated PKCδ C1a domain; details: cited from earlier work
[4] = target: PKCδ C1b domain (Mus musculus, UniProt P28867); test: [3H]PDBu competitive binding assay, isolated C1b domain of PKCδ; details: read-out: Kd for the binding of [3H]PDBu to the PKCδ C1b
Sequence of PKCδ C1b domain (P28867 231-280 limits assumed): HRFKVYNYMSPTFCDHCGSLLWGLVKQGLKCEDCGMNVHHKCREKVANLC

[5] = target: isolated PKCδ C1b domain; details: read-out: Kd for the isolated PKCδ C1b domain; cited from earlier work
[6] = test system: EGFP-tagged PKCδ in CHO cells; test: Translocation of EGFP-tagged PKCδ in CHO cells, confocal microscopy; assay type: cell-based, Chinese hamster; details: 10 μM compound, images at 0, 5 and 10 min

Row | Compound | difference in affinity between the C1a and C1b domains of PKCε [1] | plasma membrane translocation of PKCε [2] | difference in Kd between isolated PKCδ C1a and C1b domains ([3]; C1a vs C1b, isolated domains) | Kd ([3]; read-out: Kd for the isolated PKCδ C1a domain) | Kd [4] | Kd [5] | translocation of EGFP-PKCδ from cytosol to plasma membranes [6]
1 | sn-1,2-diacylglycerol [DAG] | ≤ 3 fold |  |  |  |  |  | 
2 | CCCCCCCCCCCCCC(=O)O[C@@H]1[C@@H](C)[C@@]2(O)[C@@H](C=C(CO)C[C@]3(O)C(=O)C(C)=C[C@@H]23)[C@@H]2C(C)(C)[C@]12OC(C)=O [PMA, phorbol 12-myristate 13-acetate] | ≤ 3 fold | dramatic plasma membrane translocation |  |  |  |  | 
3 | CCCC(=O)O[C@@H]1[C@@H](C)[C@@]2(O)[C@@H](C=C(CO)C[C@]3(O)C(=O)C(C)=C[C@@H]23)[C@@H]2C(C)(C)[C@]12OC(=O)CCC [PDBu, phorbol 12,13-dibutyrate] |  |  | 6 fold | 2 nM | 0.19 nM | 0.33 nM | not observed more clearly than those by monomeric and dimeric DAG–lactones
